Measurements taken from article PMC7104723 (Cell Research, 2020).
Non-standard residues stand in square brackets, D forms with d. Residues, ends and D or L forms follow the SMILES beside them. *: point of attachment. X1 = CC(C)CCC[C@@H](C)[C@H]1CC[C@H]2[C@@H]3CC=C4C[C@@H](OC(=O)C*)CC[C@]4(C)[C@H]3CC[C@]12C; Palmitoyl = CCCCCCCCCCCCCCCC(=O)*; PEG4 = NCCOCCOCCOCCOCCC(=O)O

Assays:
SARS-CoV-2 PsV = conditions: PsV, 72 h
SARS-CoV-2 S protein = SARS-CoV-2 S protein (Severe acute respiratory syndrome coronavirus 2, UniProt P0DTC2); test: cell-based; assay type: cell-based

Structure (SMILES)	IC50 (SARS-CoV-2 PsV)	Fold more potent than EK1C1, SARS-CoV-2 S-mediated cell–cell fusion (SARS-CoV-2 S protein)	Inhibition of SARS-CoV-2 mediated cell–cell fusion at 2.5 μM (SARS-CoV-2 S protein)
CC[C@H](C)[C@H](NC(=O)[C@H](C)NC(=O)[C@H](CCC(=O)O)NC(=O)[C@H](CCC(=O)O)NC(=O)[C@H](CC(C)C)NC(=O)[C@H](CCCCN)NC(=O)[C@H](CCCCN)NC(=O)[C@H](CCSC)NC(=O)[C@H](CCC(=O)O)NC(=O)[C@H](Cc1ccc(O)cc1)NC(=O)[C@H](CCC(=O)O)NC(=O)[C@H](CC(C)C)NC(=O)[C@H](CC(=O)O)NC(=O)[C@H](CC(C)C)NC(=O)[C@H](Cc1ccccc1)NC(=O)[C@@H](NC(=O)[C@@H](NC(=O)[C@H](CC(N)=O)NC(=O)[C@@H](NC(=O)[C@H](CCC(N)=O)NC(=O)[C@H](CC(=O)O)NC(=O)[C@H](CC(C)C)NC(=O)[C@@H](N)CO)[C@@H](C)CC)C(C)C)[C@@H](C)O)C(=O)N[C@@H](CCCCN)C(=O)N[C@@H](CCCCN)C(=O)N[C@@H](CC(C)C)C(=O)N[C@@H](CCC(=O)O)C(=O)N[C@@H](CCC(=O)O)C(=O)N[C@@H](CO)C(=O)N[C@@H](Cc1ccc(O)cc1)C(=O)N[C@H](C(=O)N[C@@H](CC(=O)O)C(=O)N[C@@H](CC(C)C)C(=O)N[C@@H](CCCCN)C(=O)N[C@@H](CCC(=O)O)C(=O)N[C@@H](CC(C)C)C(=O)N[C@@H](CSCC(=O)O[C@H]1CC[C@@]2(C)C(=CC[C@H]3[C@@H]4CC[C@H]([C@H](C)CCCC(C)C)[C@@]4(C)CC[C@@H]32)C1)C(N)=O)[C@@H](C)CC [EK1C1] (H-SLDQINVTFLDLEYEMKKLEEAIKKLEESYIDLKELC(X1)-NH2)	480 nM		
CC[C@H](C)[C@H](NC(=O)[C@H](C)NC(=O)[C@H](CCC(=O)O)NC(=O)[C@H](CCC(=O)O)NC(=O)[C@H](CC(C)C)NC(=O)[C@H](CCCCN)NC(=O)[C@H](CCCCN)NC(=O)[C@H](CCSC)NC(=O)[C@H](CCC(=O)O)NC(=O)[C@H](Cc1ccc(O)cc1)NC(=O)[C@H](CCC(=O)O)NC(=O)[C@H](CC(C)C)NC(=O)[C@H](CC(=O)O)NC(=O)[C@H](CC(C)C)NC(=O)[C@H](Cc1ccccc1)NC(=O)[C@@H](NC(=O)[C@@H](NC(=O)[C@H](CC(N)=O)NC(=O)[C@@H](NC(=O)[C@H](CCC(N)=O)NC(=O)[C@H](CC(=O)O)NC(=O)[C@H](CC(C)C)NC(=O)[C@@H](N)CO)[C@@H](C)CC)C(C)C)[C@@H](C)O)C(=O)N[C@@H](CCCCN)C(=O)N[C@@H](CCCCN)C(=O)N[C@@H](CC(C)C)C(=O)N[C@@H](CCC(=O)O)C(=O)N[C@@H](CCC(=O)O)C(=O)N[C@@H](CO)C(=O)N[C@@H](Cc1ccc(O)cc1)C(=O)N[C@H](C(=O)N[C@@H](CC(=O)O)C(=O)N[C@@H](CC(C)C)C(=O)N[C@@H](CCCCN)C(=O)N[C@@H](CCC(=O)O)C(=O)N[C@@H](CC(C)C)C(=O)NCC(=O)N[C@@H](CO)C(=O)NCC(=O)N[C@@H](CSCC(=O)O[C@H]1CC[C@@]2(C)C(=CC[C@H]3[C@@H]4CC[C@H]([C@H](C)CCCC(C)C)[C@@]4(C)CC[C@@H]32)C1)C(N)=O)[C@@H](C)CC [EK1C2]	419 nM		
CC[C@H](C)[C@H](NC(=O)[C@H](C)NC(=O)[C@H](CCC(=O)O)NC(=O)[C@H](CCC(=O)O)NC(=O)[C@H](CC(C)C)NC(=O)[C@H](CCCCN)NC(=O)[C@H](CCCCN)NC(=O)[C@H](CCSC)NC(=O)[C@H](CCC(=O)O)NC(=O)[C@H](Cc1ccc(O)cc1)NC(=O)[C@H](CCC(=O)O)NC(=O)[C@H](CC(C)C)NC(=O)[C@H](CC(=O)O)NC(=O)[C@H](CC(C)C)NC(=O)[C@H](Cc1ccccc1)NC(=O)[C@@H](NC(=O)[C@@H](NC(=O)[C@H](CC(N)=O)NC(=O)[C@@H](NC(=O)[C@H](CCC(N)=O)NC(=O)[C@H](CC(=O)O)NC(=O)[C@H](CC(C)C)NC(=O)[C@@H](N)CO)[C@@H](C)CC)C(C)C)[C@@H](C)O)C(=O)N[C@@H](CCCCN)C(=O)N[C@@H](CCCCN)C(=O)N[C@@H](CC(C)C)C(=O)N[C@@H](CCC(=O)O)C(=O)N[C@@H](CCC(=O)O)C(=O)N[C@@H](CO)C(=O)N[C@@H](Cc1ccc(O)cc1)C(=O)N[C@H](C(=O)N[C@@H](CC(=O)O)C(=O)N[C@@H](CC(C)C)C(=O)N[C@@H](CCCCN)C(=O)N[C@@H](CCC(=O)O)C(=O)N[C@@H](CC(C)C)C(=O)NCC(=O)N[C@@H](CO)C(=O)NCC(=O)NCCOCCOCCOCCOCCC(=O)N[C@@H](CSCC(=O)O[C@H]1CC[C@@]2(C)C(=CC[C@H]3[C@@H]4CC[C@H]([C@H](C)CCCC(C)C)[C@@]4(C)CC[C@@H]32)C1)C(N)=O)[C@@H](C)CC [EK1C3]	86.4 nM	4 fold	
CC[C@H](C)[C@H](NC(=O)[C@H](C)NC(=O)[C@H](CCC(=O)O)NC(=O)[C@H](CCC(=O)O)NC(=O)[C@H](CC(C)C)NC(=O)[C@H](CCCCN)NC(=O)[C@H](CCCCN)NC(=O)[C@H](CCSC)NC(=O)[C@H](CCC(=O)O)NC(=O)[C@H](Cc1ccc(O)cc1)NC(=O)[C@H](CCC(=O)O)NC(=O)[C@H](CC(C)C)NC(=O)[C@H](CC(=O)O)NC(=O)[C@H](CC(C)C)NC(=O)[C@H](Cc1ccccc1)NC(=O)[C@@H](NC(=O)[C@@H](NC(=O)[C@H](CC(N)=O)NC(=O)[C@@H](NC(=O)[C@H](CCC(N)=O)NC(=O)[C@H](CC(=O)O)NC(=O)[C@H](CC(C)C)NC(=O)[C@@H](N)CO)[C@@H](C)CC)C(C)C)[C@@H](C)O)C(=O)N[C@@H](CCCCN)C(=O)N[C@@H](CCCCN)C(=O)N[C@@H](CC(C)C)C(=O)N[C@@H](CCC(=O)O)C(=O)N[C@@H](CCC(=O)O)C(=O)N[C@@H](CO)C(=O)N[C@@H](Cc1ccc(O)cc1)C(=O)N[C@H](C(=O)N[C@@H](CC(=O)O)C(=O)N[C@@H](CC(C)C)C(=O)N[C@@H](CCCCN)C(=O)N[C@@H](CCC(=O)O)C(=O)N[C@@H](CC(C)C)C(=O)NCC(=O)N[C@@H](CO)C(=O)NCC(=O)N[C@@H](CO)C(=O)NCC(=O)NCCOCCOCCOCCOCCOCCOCCOCCOCCC(=O)N[C@@H](CSCC(=O)O[C@H]1CC[C@@]2(C)C(=CC[C@H]3[C@@H]4CC[C@H]([C@H](C)CCCC(C)C)[C@@]4(C)CC[C@@H]32)C1)C(N)=O)[C@@H](C)CC [EK1C5]	31.3 nM		
CC[C@H](C)[C@H](NC(=O)[C@H](C)NC(=O)[C@H](CCC(=O)O)NC(=O)[C@H](CCC(=O)O)NC(=O)[C@H](CC(C)C)NC(=O)[C@H](CCCCN)NC(=O)[C@H](CCCCN)NC(=O)[C@H](CCSC)NC(=O)[C@H](CCC(=O)O)NC(=O)[C@H](Cc1ccc(O)cc1)NC(=O)[C@H](CCC(=O)O)NC(=O)[C@H](CC(C)C)NC(=O)[C@H](CC(=O)O)NC(=O)[C@H](CC(C)C)NC(=O)[C@H](Cc1ccccc1)NC(=O)[C@@H](NC(=O)[C@@H](NC(=O)[C@H](CC(N)=O)NC(=O)[C@@H](NC(=O)[C@H](CCC(N)=O)NC(=O)[C@H](CC(=O)O)NC(=O)[C@H](CC(C)C)NC(=O)[C@@H](N)CO)[C@@H](C)CC)C(C)C)[C@@H](C)O)C(=O)N[C@@H](CCCCN)C(=O)N[C@@H](CCCCN)C(=O)N[C@@H](CC(C)C)C(=O)N[C@@H](CCC(=O)O)C(=O)N[C@@H](CCC(=O)O)C(=O)N[C@@H](CO)C(=O)N[C@@H](Cc1ccc(O)cc1)C(=O)N[C@H](C(=O)N[C@@H](CC(=O)O)C(=O)N[C@@H](CC(C)C)C(=O)N[C@@H](CCCCN)C(=O)N[C@@H](CCC(=O)O)C(=O)N[C@@H](CC(C)C)C(=O)NCC(=O)N[C@@H](CO)C(=O)NCC(=O)N[C@@H](CO)C(=O)NCC(=O)NCCOCCOCCOCCOCCOCCOCCOCCOCCOCCOCCOCCOCCC(=O)N[C@@H](CSCC(=O)O[C@H]1CC[C@@]2(C)C(=CC[C@H]3[C@@H]4CC[C@H]([C@H](C)CCCC(C)C)[C@@]4(C)CC[C@@H]32)C1)C(N)=O)[C@@H](C)CC [EK1C6]	77.4 nM		
CC[C@H](C)[C@H](NC(=O)[C@H](C)NC(=O)[C@H](CCC(=O)O)NC(=O)[C@H](CCC(=O)O)NC(=O)[C@H](CC(C)C)NC(=O)[C@H](CCCCN)NC(=O)[C@H](CCCCN)NC(=O)[C@H](CCSC)NC(=O)[C@H](CCC(=O)O)NC(=O)[C@H](Cc1ccc(O)cc1)NC(=O)[C@H](CCC(=O)O)NC(=O)[C@H](CC(C)C)NC(=O)[C@H](CC(=O)O)NC(=O)[C@H](CC(C)C)NC(=O)[C@H](Cc1ccccc1)NC(=O)[C@@H](NC(=O)[C@@H](NC(=O)[C@H](CC(N)=O)NC(=O)[C@@H](NC(=O)[C@H](CCC(N)=O)NC(=O)[C@H](CC(=O)O)NC(=O)[C@H](CC(C)C)NC(=O)[C@@H](N)CO)[C@@H](C)CC)C(C)C)[C@@H](C)O)C(=O)N[C@@H](CCCCN)C(=O)N[C@@H](CCCCN)C(=O)N[C@@H](CC(C)C)C(=O)N[C@@H](CCC(=O)O)C(=O)N[C@@H](CCC(=O)O)C(=O)N[C@@H](CO)C(=O)N[C@@H](Cc1ccc(O)cc1)C(=O)N[C@H](C(=O)N[C@@H](CC(=O)O)C(=O)N[C@@H](CC(C)C)C(=O)N[C@@H](CCCCN)C(=O)N[C@@H](CCC(=O)O)C(=O)N[C@@H](CC(C)C)C(=O)NCC(=O)N[C@@H](CO)C(=O)NCC(=O)N[C@@H](CO)C(=O)NCC(=O)NCCOCCOCCOCCOCCOCCOCCOCCOCCOCCOCCOCCOCCOCCOCCOCCOCCOCCOCCOCCOCCOCCOCCOCCOCCC(=O)N[C@@H](CSCC(=O)O[C@H]1CC[C@@]2(C)C(=CC[C@H]3[C@@H]4CC[C@H]([C@H](C)CCCC(C)C)[C@@]4(C)CC[C@@H]32)C1)C(N)=O)[C@@H](C)CC [EK1C7]	84.4 nM		
CCCCCCCCCCCCCCCC(=O)SC[C@H](NC(=O)CCOCCOCCOCCOCCNC(=O)[C@H](CC(C)C)NC(=O)[C@H](CCC(=O)O)NC(=O)[C@H](CCCCN)NC(=O)[C@H](CC(C)C)NC(=O)[C@H](CC(=O)O)NC(=O)[C@@H](NC(=O)[C@H](Cc1ccc(O)cc1)NC(=O)[C@H](CO)NC(=O)[C@H](CCC(=O)O)NC(=O)[C@H](CCC(=O)O)NC(=O)[C@H](CC(C)C)NC(=O)[C@H](CCCCN)NC(=O)[C@H](CCCCN)NC(=O)[C@@H](NC(=O)[C@H](C)NC(=O)[C@H](CCC(=O)O)NC(=O)[C@H](CCC(=O)O)NC(=O)[C@H](CC(C)C)NC(=O)[C@H](CCCCN)NC(=O)[C@H](CCCCN)NC(=O)[C@H](CCSC)NC(=O)[C@H](CCC(=O)O)NC(=O)[C@H](Cc1ccc(O)cc1)NC(=O)[C@H](CCC(=O)O)NC(=O)[C@H](CC(C)C)NC(=O)[C@H](CC(=O)O)NC(=O)[C@H](CC(C)C)NC(=O)[C@H](Cc1ccccc1)NC(=O)[C@@H](NC(=O)[C@@H](NC(=O)[C@H](CC(N)=O)NC(=O)[C@@H](NC(=O)[C@H](CCC(N)=O)NC(=O)[C@H](CC(=O)O)NC(=O)[C@H](CC(C)C)NC(=O)[C@@H](N)CO)[C@@H](C)CC)C(C)C)[C@@H](C)O)[C@@H](C)CC)[C@@H](C)CC)C(N)=O [EK1P] (H-SLDQINVTFLDLEYEMKKLEEAIKKLEESYIDLKEL[PEG4]C(Palmitoyl)-NH2)			completely inhibit
